Test results from PMC6222422, “Synthesis and Biological Evaluation of Novel Indole-Derived Thioureas” (Molecules : A Journal of Synthetic Chemistry and Natural …, 2018).
In brackets after ≈: the same amount, converted by molar mass. Where two headings read alike, the source gives them in different places.

How the values were obtained:
S. aureus ATCC 29213 [1] = test: MIC, twofold serial agar dilution; assay type: cell-based; details: Staphylococcus aureus, ATCC29213, 18 h, 35 °C, read-out: minimal inhibitory concentrations (MIC)
B. subtilis ATCC 6633 [2] = test: MIC, twofold serial agar dilution; assay type: cell-based; details: Bacillus subtilis, ATCC6633, 18 h, 35 °C, read-out: minimal inhibitory concentrations (MIC)
[3] = test system: S. epidermidis ATCC 12228; test: MIC, twofold serial agar dilution; assay type: cell-based; details: Staphylococcus epidermidis, ATCC12228, 18 h, 35 °C, read-out: minimal inhibitory concentrations (MIC)
M. luteus ATCC 10240 [4] = test: MIC, twofold serial agar dilution; assay type: cell-based; details: Micrococcus luteus, ATCC10240, 18 h, 35 °C, read-out: minimal inhibitory concentrations (MIC)
B. cereus ATCC 11778 [5] = test: MIC, twofold serial agar dilution; assay type: cell-based; details: Bacillus cereus, ATCC11778, 18 h, 35 °C, read-out: minimal inhibitory concentrations (MIC)
S. aureus NCTC 4163 [6] = test: disc diffusion method; assay type: cell-based, Staphylococcus aureus; details: 5 µg/9 mm disc
S. aureus ATCC 6538 [7] = test: MIC, twofold serial agar dilution; assay type: cell-based; details: Staphylococcus aureus, ATCC6538, 18 h, 35 °C, read-out: minimal inhibitory concentrations (MIC)
B. cereus ATCC 11778 [8] = test: disc diffusion method; assay type: cell-based, Bacillus cereus; details: 5 µg/9 mm disc
S. aureus ATCC 25923 [9] = test: disc diffusion method; assay type: cell-based, Staphylococcus aureus; details: 5 µg/9 mm disc
[10] = test system: hospital methicillin-susceptible strains of S. aureus (MSSA); test: MIC against hospital strains; details: Staphylococcus aureus
S. aureus ATCC 6538 [11] = test: disc diffusion method; assay type: cell-based, Staphylococcus aureus; details: 5 µg/9 mm disc
M. luteus ATCC 9341 [12] = test: disc diffusion method; assay type: cell-based, Micrococcus luteus; details: 5 µg/9 mm disc
M. luteus ATCC 10240 [13] = test: disc diffusion method; assay type: cell-based, Micrococcus luteus; details: 5 µg/9 mm disc
S. aureus ATCC 25923 [14] = test: MIC, twofold serial agar dilution; assay type: cell-based; details: Staphylococcus aureus, ATCC25923, 18 h, 35 °C, read-out: minimal inhibitory concentrations (MIC)
[15] = test system: methicillin-resistant strains of S. aureus (MRSA); test: MIC against hospital strains; details: Staphylococcus aureus
M. luteus ATCC 9341 [16] = test: MIC, twofold serial agar dilution; assay type: cell-based; details: Micrococcus luteus, ATCC9341, 18 h, 35 °C, read-out: minimal inhibitory concentrations (MIC)
S. aureus NCTC 4163 [17] = test: MIC, twofold serial agar dilution; assay type: cell-based; details: Staphylococcus aureus, NCTC4163, 18 h, 35 °C, read-out: minimal inhibitory concentrations (MIC)
B. subtilis ATCC 6633 [18] = test: disc diffusion method; assay type: cell-based, Bacillus subtilis; details: 5 µg/9 mm disc
[19] = molecular target: S. aureus topoisomerase IV (Staphylococcus aureus, UniProt P0C1S7+P0C1U9); details: at 32 µg/mL
Chain of S. aureus topoisomerase IV (P0C1U9 whole entry, the tested form may be a part): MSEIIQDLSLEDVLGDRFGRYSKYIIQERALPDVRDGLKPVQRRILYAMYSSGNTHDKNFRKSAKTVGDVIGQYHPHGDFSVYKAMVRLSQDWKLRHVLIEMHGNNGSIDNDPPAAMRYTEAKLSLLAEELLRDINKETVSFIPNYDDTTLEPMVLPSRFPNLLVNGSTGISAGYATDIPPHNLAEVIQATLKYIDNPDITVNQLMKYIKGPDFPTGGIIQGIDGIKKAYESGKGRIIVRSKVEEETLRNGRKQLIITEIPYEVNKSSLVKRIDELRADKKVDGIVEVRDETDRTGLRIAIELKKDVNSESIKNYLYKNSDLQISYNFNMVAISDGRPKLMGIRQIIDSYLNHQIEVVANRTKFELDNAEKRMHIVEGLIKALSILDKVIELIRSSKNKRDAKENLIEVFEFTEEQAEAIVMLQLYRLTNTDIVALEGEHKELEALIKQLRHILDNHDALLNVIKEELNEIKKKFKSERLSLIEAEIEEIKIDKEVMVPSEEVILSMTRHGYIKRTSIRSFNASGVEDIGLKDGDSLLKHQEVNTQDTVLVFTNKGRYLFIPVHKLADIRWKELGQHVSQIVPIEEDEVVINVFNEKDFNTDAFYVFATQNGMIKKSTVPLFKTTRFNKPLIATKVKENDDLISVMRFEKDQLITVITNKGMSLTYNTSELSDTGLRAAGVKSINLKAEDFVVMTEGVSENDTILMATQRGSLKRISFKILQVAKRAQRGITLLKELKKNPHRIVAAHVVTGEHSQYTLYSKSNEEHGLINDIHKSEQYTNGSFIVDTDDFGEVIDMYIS
Chain of S. aureus topoisomerase IV (P0C1S7 whole entry, the tested form may be a part): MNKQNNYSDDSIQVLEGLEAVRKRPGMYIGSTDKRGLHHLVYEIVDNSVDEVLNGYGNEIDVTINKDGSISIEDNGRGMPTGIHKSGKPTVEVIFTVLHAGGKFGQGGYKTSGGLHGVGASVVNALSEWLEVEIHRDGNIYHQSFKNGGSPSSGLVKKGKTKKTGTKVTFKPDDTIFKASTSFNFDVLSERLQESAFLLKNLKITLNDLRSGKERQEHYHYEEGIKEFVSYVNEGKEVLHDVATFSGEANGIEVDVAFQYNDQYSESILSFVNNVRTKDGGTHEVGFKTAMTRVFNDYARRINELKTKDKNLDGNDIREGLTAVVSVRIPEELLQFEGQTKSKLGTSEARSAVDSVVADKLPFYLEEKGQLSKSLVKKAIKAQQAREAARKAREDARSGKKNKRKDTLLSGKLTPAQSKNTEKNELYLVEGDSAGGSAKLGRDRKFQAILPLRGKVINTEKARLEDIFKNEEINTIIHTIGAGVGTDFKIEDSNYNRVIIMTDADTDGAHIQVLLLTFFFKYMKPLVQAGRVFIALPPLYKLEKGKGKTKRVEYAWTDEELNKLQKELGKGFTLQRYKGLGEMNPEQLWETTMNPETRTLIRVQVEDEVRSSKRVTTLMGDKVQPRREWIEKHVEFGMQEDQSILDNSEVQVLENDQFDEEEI

[20] = test system: S. epidermidis ATCC 12228; test: disc diffusion method; assay type: cell-based, Staphylococcus epidermidis; details: 5 µg/9 mm disc
S. epidermidis (MRSE) = test: MIC against hospital strains; details: Staphylococcus epidermidis
S. aureus ATCC 29213 [21] = test: disc diffusion method; assay type: cell-based, Staphylococcus aureus; details: 5 µg/9 mm disc
HIV-1 = test: microbe, parasite or virus in culture
RSV = test: microbe, parasite or virus in culture; assay type: cell-based, human respiratory syncytial virus; details: for EC50: human respiratory syncytial virus, Vero 76, read-out: RSV EC50
[22] = test system: HIV-1 MDR strain (74V, 41L, 106A, 215Y); test: microbe, parasite or virus in culture; assay type: cell-based, Human Immunodeficiency Virus type-1
BVDV = test: microbe, parasite or virus in culture; assay type: cell-based, bovine viral diarrhoea virus; details: for EC50: Bovine viral diarrhea virus isolates and strains, MDBK, in Bos taurus, read-out: BVDV EC50
in vitro [23] = details: human
CV-B5 = test: microbe, parasite or virus in culture; assay type: cell-based, coxsackievirus B5; details: Enterovirus B, CVB5, Vero 76, read-out: CV-B5 EC50
[24] = test system: HIV-1 A17 (K103N + Y181C mutant); test: microbe, parasite or virus in culture; assay type: cell-based, Human Immunodeficiency Virus type-1
Sb-1 = test: microbe, parasite or virus in culture; assay type: cell-based, poliovirus type-1; details: Enterovirus C, Vero 76, read-out: Sb-1 EC50
Reo-1 = test: microbe, parasite or virus in culture; assay type: cell-based, reovirus type-1; details: Reovirus sp., BHK, read-out: Reo-1 EC50
[25] = test system: HIV-1 EFV^R (K103R + V179D + P225H mutant); test: microbe, parasite or virus in culture; assay type: cell-based, Human Immunodeficiency Virus type-1; details: Human immunodeficiency virus 1, MT4, 96 h, read-out: EC50 EFV^R
YFV = test: microbe, parasite or virus in culture; assay type: cell-based; details: Yellow fever virus, BHK, read-out: YFV EC50
[26] = test system: HIV-1 N119 (Y181C mutant); test: microbe, parasite or virus in culture; assay type: cell-based, Human Immunodeficiency Virus type-1; details: Human immunodeficiency virus 1, MT4, read-out: EC50 N119
[27] = test system: HIV-1 AZT^R strain (67N, 70R, 215F, 219Q); test: microbe, parasite or virus in culture; assay type: cell-based, Human Immunodeficiency Virus type-1
HSV-1 = test: microbe, parasite or virus in culture; assay type: cell-based, human herpes 1; details: Human alphaherpesvirus 1, Vero 76, read-out: HSV-1 EC50
VV = test: microbe, parasite or virus in culture; assay type: cell-based; details: Orthopoxvirus vaccinia, Vero 76, read-out: VV EC50
VSV = test: microbe, parasite or virus in culture; assay type: cell-based; details: Vesicular stomatitis virus, Vero 76, read-out: VSV EC50
in vitro [28] = details: African green monkey (Cercopithecus aethiops)
in vitro [29] = details: cattle (Bos taurus)
in vitro [30] = details: Syrian hamster (Mesocricetus auratus)
[31] = Human immunodeficiency virus 1, MT4, read-out: HIV-1 EC50

O=C(O)c1cn(C2CC2)c2cc(N3CCNCC3)c(F)cc2c1=O [Ciprofloxacin, reference compound]
MIC (S. aureus ATCC 29213 [1]): 0.5 µg/mL (≈ 1.51 µM) | MIC (B. subtilis ATCC 6633 [2]): < 0.12 µg/mL | MIC [3]: 0.25 µg/mL (≈ 0.754 µM) | MIC (M. luteus ATCC 10240 [4]): 1 µg/mL (≈ 3.02 µM) | MIC (B. cereus ATCC 11778 [5]): 0.25 µg/mL (≈ 0.754 µM) | diameter of growth inhibitory zone (GIZ) (S. aureus NCTC 4163 [6]): 26 mm | MIC (S. aureus ATCC 6538 [7]): 0.25 µg/mL (≈ 0.754 µM) | diameter of growth inhibitory zone (GIZ) (B. cereus ATCC 11778 [8]): 26 mm | diameter of growth inhibitory zone (GIZ) (S. aureus ATCC 25923 [9]): 26 mm | MIC ([10]; hospital S. aureus MSSA strain 440/11): 0.4 µg/mL (≈ 1.21 µM) | MIC ([10]; hospital S. aureus MSSA strain 441/11): 0.4 µg/mL (≈ 1.21 µM) | MIC ([10]; hospital S. aureus MSSA strain 442/11): 0.4 µg/mL (≈ 1.21 µM) | MIC ([10]; hospital S. aureus MSSA strain 443/11): 0.4 µg/mL (≈ 1.21 µM) | MIC ([10]; hospital S. aureus MSSA strain 444/11): 0.8 µg/mL (≈ 2.41 µM) | MIC ([10]; hospital S. aureus MSSA strain 445/11): 0.4 µg/mL (≈ 1.21 µM) | MIC ([10]; hospital S. aureus MSSA strain 446/11): 0.4 µg/mL (≈ 1.21 µM) | MIC ([10]; hospital S. aureus MSSA strain 447/11): 0.8 µg/mL (≈ 2.41 µM) | MIC ([10]; hospital S. aureus MSSA strain 448/11): 0.8 µg/mL (≈ 2.41 µM) | MIC ([10]; hospital S. aureus MSSA strain 449/11): 0.4 µg/mL (≈ 1.21 µM) | diameter of growth inhibitory zone (GIZ) (S. aureus ATCC 6538 [11]): 28 mm | diameter of growth inhibitory zone (GIZ) (M. luteus ATCC 9341 [12]): 26 mm | diameter of growth inhibitory zone (GIZ) (M. luteus ATCC 10240 [13]): 25 mm | MIC (S. aureus ATCC 25923 [14]): 0.5 µg/mL (≈ 1.51 µM) | MIC ([15]; hospital S. aureus MRSA strain 389/10): 25 µg/mL (≈ 75.4 µM) | MIC ([15]; hospital S. aureus MRSA strain 390/10): 100 µg/mL (≈ 302 µM) | MIC ([15]; hospital S. aureus MRSA strain 391/10): 100 µg/mL (≈ 302 µM) | MIC ([15]; hospital S. aureus MRSA strain 392/10): 100 µg/mL (≈ 302 µM) | MIC ([15]; hospital S. aureus MRSA strain 393/10): 50 µg/mL (≈ 151 µM) | MIC ([15]; hospital S. aureus MRSA strain 394/10): 25 µg/mL (≈ 75.4 µM) | MIC ([15]; hospital S. aureus MRSA strain 399/10): 200 µg/mL (≈ 604 µM) | MIC ([15]; hospital S. aureus MRSA strain 450/11): 100 µg/mL (≈ 302 µM) | MIC ([15]; hospital S. aureus MRSA strain 451/11): 100 µg/mL (≈ 302 µM) | MIC ([15]; hospital S. aureus MRSA strain 452/11): 200 µg/mL (≈ 604 µM) | MIC (M. luteus ATCC 9341 [16]): 0.25 µg/mL (≈ 0.754 µM) | MIC (S. aureus NCTC 4163 [17]): 0.25 µg/mL (≈ 0.754 µM) | diameter of growth inhibitory zone (GIZ) (B. subtilis ATCC 6633 [18]): 38 mm | inhibition of decatenation activity of S. aureus topoisomerase IV [19]: almost completely inhibited | diameter of growth inhibitory zone (GIZ) [20]: 30 mm | MIC (S. epidermidis (MRSE)): 6.25 µg/mL (≈ 18.9 µM) | MIC (S. epidermidis (MRSE); hospital S. epidermidis MRSE strain 430/11): 0.8 µg/mL (≈ 2.41 µM) | MIC (S. epidermidis (MRSE); hospital S. epidermidis MRSE strain 432/11): 50 µg/mL (≈ 151 µM) | MIC (S. epidermidis (MRSE); hospital S. epidermidis MRSE strain 433/11): 50 µg/mL (≈ 151 µM) | MIC (S. epidermidis (MRSE); hospital S. epidermidis MRSE strain 434/11): 50 µg/mL (≈ 151 µM) | MIC (S. epidermidis (MRSE); hospital S. epidermidis MRSE strain 435/11): 0.4 µg/mL (≈ 1.21 µM) | MIC (S. epidermidis (MRSE); hospital S. epidermidis MRSE strain 436/11): 0.4 µg/mL (≈ 1.21 µM) | MIC (S. epidermidis (MRSE); hospital S. epidermidis MRSE strain 437/11): 0.8 µg/mL (≈ 2.41 µM) | MIC (S. epidermidis (MRSE); hospital S. epidermidis MRSE strain 438/11): 0.4 µg/mL (≈ 1.21 µM) | MIC (S. epidermidis (MRSE); hospital S. epidermidis MRSE strain 439/11): 50 µg/mL (≈ 151 µM) | diameter of growth inhibitory zone (GIZ) (S. aureus ATCC 29213 [21]): 22 mm

S=C(NCCc1c[nH]c2ccccc12)Nc1ccc(Br)cc1 [Compound 8, 1-(2-(1H-Indol-3-yl)ethyl)-3-(4-bromophenyl)thiourea]
EC50 (HIV-1; Human immunodeficiency virus 1, MT4, read-out: EC50 HIV-1): 8.7 ± 0.8 µM | EC50 (HIV-1; [31]): 8.7 ± 0.4 µM | EC50 (RSV): > 13 µM | activity against MDR strain compared with wild type (in words) [22]: comparable with those of HIV-1 wild-type | EC50 ([22]; Human immunodeficiency virus 1, MT4, read-out: EC50 MDR): 9 ± 0.8 µM | EC50 (BVDV): > 52 µM | CC50 (in vitro [23]): 45 µM | EC50 (CV-B5): > 13 µM | activity against A17 strain compared with wild type (in words) [24]: comparable with those of HIV-1 wild-type | EC50 ([24]; Human immunodeficiency virus 1, MT4, 96 h, read-out: EC50 A17): 12 ± 1.5 µM | EC50 (Sb-1): > 13 µM | EC50 (Reo-1): > 10 µM | EC50 [25]: > 45 µM | EC50 (YFV): > 10 µM | melting point: 156 to 158 °C | EC50 [26]: > 45 µM | activity against AZT^R strain compared with wild type (in words) [27]: comparable with those of HIV-1 wild-type | EC50 ([27]; Human immunodeficiency virus 1, MT4, read-out: EC50 AZT^R): 9 ± 1 µM | EC50 (HSV-1): > 13 µM | EC50 (VV): > 13 µM | EC50 (VSV): > 13 µM | CC50 (in vitro [28]): 13 µM | CC50 (in vitro [29]): 52 µM | CC50 (in vitro [30]): 10 µM

S=C(NCCc1ccccc1)NCCc1c[nH]c2ccccc12 [Compound 16, 1-(2-(1H-Indol-3-yl)ethyl)-3-phenethylthiourea]
EC50 (HIV-1; [31]): > 49 µM | activity against RSV (in words) (RSV): moderately active | EC50 (RSV): 30 ± 2.6 µM | activity against BVDV (in words) (BVDV): showed activity | EC50 (BVDV): 46 µM | CC50 (in vitro [23]): 49 µM | EC50 (CV-B5): 18 ± 1.7 µM | EC50 (Sb-1): > 100 µM | EC50 (Reo-1): > 18 µM | EC50 (YFV): > 18 µM | cytotoxicity for MDBK cell lines (in words) (MDBK cells): lack of cytotoxicity | EC50 (HSV-1): > 100 µM | EC50 (VV): > 100 µM | EC50 (VSV): > 100 µM | CC50 (in vitro [28]): > 100 µM | CC50 (in vitro [29]): > 100 µM | CC50 (in vitro [30]): 18 µM
